For assay [1], the system named is LPS-induced peribronchial inflammation. Kind of assay: Peribronchial inflammation score, LPS-induced inflammation model. Type of assay: in vivo, mouse. Particulars: aerosolized 15 mM, vs placebo, FIG. 14. How it is done:
(§1) In lipopolysaccharide (LPS)-induced inflammation model, mice were exposed to 3 μg LPS diluted in 100 μl of PBS or PBS (phosphate buffer saline) only administered by direct tracheal instillations at day 1 and 5 of the protocol. Mice were daily exposed either to aerosolized hydroxypropyl-beta-cyclodextrin (15 mM) or PBS for 30 min from day 0 to 5 (6 hours after LPS or sham exposure at days 1 and 5). Mice were sacrificed at day 6.
(§2) After sacrifice, thorax was opened and the right lungs were excised and snap frozen in liquid nitrogen for protein extraction. The left lung was insufflated at constant pressure with 4% paraformaldehyde and embedded in paraffin for further histological analysis. A peribronchial inflammation score was applied on each hematoxylin-eosin stained slide as previously reported (Cataldo et al Am J Pathol 2002). A value from 0 to 2 was adjudged to each bronchus. Score of 0 corresponded to bronchi without inflammation; score 1 to occasional mononuclear cells observed around bronchi, and score 2 to 1 to 5 layer(s) of inflammatory cells around bronchi. Six bronchi per mice were counted and statistical analysis was performed by using GraphPad Program. […] ELISA for CXCL-1 on lung protein extracts were assessed using antibodies from R&D Systems and the R&D Duoset® Elisa Development kit (R&D Systems, Minneapolis, Minn., USA).

The subject of assay [2] is IL-13. Briefly: IL-13 ELISA in BAL and lung protein extracts, OVA mouse model. Format: in vivo. As for the experimental part: (§3) In order to study modulation of airway inflammation, males BALB/c mice of 6 to 8 weeks old were sensitized by intraperitoneal injection of 10 μg ovalbumin (OVA) (Sigma Aldrich, Schnelldorf, Germany) emulsified in aluminum hydroxyde (AlumInject; Perbio, Erembodegem, Belgium) on days 1 and 8. Mice were subsequently exposed to allergens by daily inhalation of an aerosol of OVA 1%, for 30 minutes, generated by ultrasonic nebulizer (Devilbiss 2000), from day 21 to 27. Mice were subjected to inhalation of β-CD, HP-β-CD HP 1, 7.5, 50 mM and HP-β-CD 50 mM 30 minutes before OVA inhalation. Mice were sacrificed performed on day 28 as previously reported by Cataldo and al in Am. J. Pathol 2002; 161(2):491-498.
The left lung was crushed using a Mikro-Dismembrator (Braun Biotech International, Gmbh Melsungen, Germany). For proteins extraction, the crushed lung tissue was incubated overnight at 4° C. in a solution containing 2M urea, 1M NaCl and 50 mM Tris (pH 7.5) and subsequently centrifuged 15 minutes at 16.000×g. The supernatant was stored at −80° C.
Eotaxin and IL-13 levels were assessed using commercial ELISAs (R&D systems, Abingdon, UK). Eotaxin was measured by incubation in a wheel coated with a primary antibody specifically dedicated to the recognition of the protein and after rinsing, a second antibody against eotaxin, coupled with horse radish peroxydase was used to quantify the amounts of eotaxin in the solution
IL-13 was measured by incubation in a wheel coated with a primary antibody specifically dedicated to the recognition of the protein and after rinsing, a second antibody against IL-13, coupled with horse radish peroxydase was used to quantify the amounts of […] in the solution.
On the technique in general: ELISA stands for enzyme-linked immunosorbent assay.

Assay [3] deals with OVA exposed mice. Briefly: Bronchial responsiveness to methacholine (Penh, barometric plethysmograph). Format: in vivo, mouse. How it is done: (§4) In order to study modulation of airway inflammation, males BALB/c mice of 6 to 8 weeks old were sensitized by intraperitoneal injection of 10 μg ovalbumin (OVA) (Sigma Aldrich, Schnelldorf, Germany) emulsified in aluminum hydroxyde (AlumInject; Perbio, Erembodegem, Belgium) on days 1 and 8. Mice were subsequently exposed to allergens by daily inhalation of an aerosol of OVA 1%, for 30 minutes, generated by ultrasonic nebulizer (Devilbiss 2000), from day 21 to 27. […] Mice were sacrificed performed on day 28 as previously reported by Cataldo and al in Am. J. Pathol 2002; 161(2):491-498.
Twenty-four hours after the last allergen exposure, the bronchial hyper responsiveness was determined by measuring the Penh (Enhanced Pause) using a barometric plethysmograph (Emka technologies, Paris) as proposed by Hamelmann, E., et al., Am. J. Respir. Crit. Care Med. 156 (1997) 766-775). The Penh was measured at baseline and […] after the inhalation of increasing doses (25, 50, 75 and 100 mM) of methacholine (Mch).

In assay [4] the test system is CXCL-1. Briefly: CXCL-1 ELISA in lung protein extracts, LPS-induced inflammation model. Type of assay: in vivo, mouse. The settings on record: aerosolized 15 mM, vs placebo, FIG. 13. How it is done: as §1, §2
For assay [5], the system named is OVA exposed mice. Kind of assay: Peribronchial eosinophil infiltration (Congo Red), OVA mouse model. Format: in vivo. Particulars: FIG. 3. How it is done: as §3
(§5) After BAL, the thorax was opened and the left main bronchus was clamped. The left lung was excised and frozen immediately at −80° C. for protein and mRNA extraction. The right lung was infused with 4 ml paraformaldehyde 4%, embedded in paraffin and used for histology. Sections of 5 μm thickness were cut off from paraffin and were stained with haematoxylin-eosin. The extent of peribronchial inflammation was estimated by a score calculated by quantification of peribronchial inflammatory cells, as previously described by Cataldo D D, Tournoy K G, Vermaelen K et al. in Am J Pathol 2002; 161(2):491-498. A value of 0 was adjudged when no inflammation was detectable, a value of 1 when there was occasionally inflammatory cells, a value of 2 when most bronchi were surrounded by a thin layer (1 to 5 cells) of inflammatory cells and a value of 3 when most bronchi were surrounded by a thick layer (>5 cells) of inflammatory cells. Since 5-7 randomly selected tissue sections per mouse were scored, inflammation scores are expressed as a mean value and can be compared between groups. After Congo Red staining, the eosinophilic infiltration in the airway walls was quantified by manual count and reported to the perimeter of epithelial basement membrane defining an eosinophilic inflammatory score.

The test system of assay [6] is OVA exposed mice. Kind of assay: Peribronchial inflammation score by histology, OVA mouse model. Format: in vivo. The settings on record: 1, 7.5 and 50 mM, compared to placebo; FIG. 2. How it is done: as §4, §5

The results in this text go back to patent US9034846B2, “Use of cyclodextrin for treatment and prevention of bronchial inflammatory diseases” (UNIVERSITE DE LIEGE, priority 2004, dated 2015).

Turning to hydroxypropyl-βcyclodextrin [HP-β-CD], the Peribronchial inflammation result in assay [1] is reported as “significantly lower”. For the same substance, in assay [2] (50 mM, FIG. 11), the “levels of IL-13 in whole lung protein extracts” value is listed as “significantly decreased”. Also, in assay [2] (FIG. 7b), the “IL-13 levels in BAL” value was “decreased”. The “area under the methacholine dose-response curve (A.U.C)” value in assay [3] (50 mM) is reported as “significant decrease”. Besides, the “methacholine-induced Penh increase” value in assay [3] (50 mM inhalation, FIG. 4) is given as “reduced”. Besides, the “Levels of CXCL-1 in lung protein extracts” value in assay [4] is given as “significantly decreased”. Besides, the peribronchial eosinophil infiltration result in assay [5] (50 mM) is reported as “decrease reached statistical significance”; in assay [5] (1 and 7.5 mM) it was “decrease reached statistical significance”. In addition, in assay [6], the peribronchial inflammation score result is “decreased inflammation score”.
